Data: paper PMC5640798 (Synthetic and Systems Biotechnology, 2016)

Biological target: hERG potassium channel (Homo sapiens, UniProt Q12809)
Experiment: hERG channel inhibition test
Assay type: cell-based

Chain of hERG potassium channel (Q12809 whole entry): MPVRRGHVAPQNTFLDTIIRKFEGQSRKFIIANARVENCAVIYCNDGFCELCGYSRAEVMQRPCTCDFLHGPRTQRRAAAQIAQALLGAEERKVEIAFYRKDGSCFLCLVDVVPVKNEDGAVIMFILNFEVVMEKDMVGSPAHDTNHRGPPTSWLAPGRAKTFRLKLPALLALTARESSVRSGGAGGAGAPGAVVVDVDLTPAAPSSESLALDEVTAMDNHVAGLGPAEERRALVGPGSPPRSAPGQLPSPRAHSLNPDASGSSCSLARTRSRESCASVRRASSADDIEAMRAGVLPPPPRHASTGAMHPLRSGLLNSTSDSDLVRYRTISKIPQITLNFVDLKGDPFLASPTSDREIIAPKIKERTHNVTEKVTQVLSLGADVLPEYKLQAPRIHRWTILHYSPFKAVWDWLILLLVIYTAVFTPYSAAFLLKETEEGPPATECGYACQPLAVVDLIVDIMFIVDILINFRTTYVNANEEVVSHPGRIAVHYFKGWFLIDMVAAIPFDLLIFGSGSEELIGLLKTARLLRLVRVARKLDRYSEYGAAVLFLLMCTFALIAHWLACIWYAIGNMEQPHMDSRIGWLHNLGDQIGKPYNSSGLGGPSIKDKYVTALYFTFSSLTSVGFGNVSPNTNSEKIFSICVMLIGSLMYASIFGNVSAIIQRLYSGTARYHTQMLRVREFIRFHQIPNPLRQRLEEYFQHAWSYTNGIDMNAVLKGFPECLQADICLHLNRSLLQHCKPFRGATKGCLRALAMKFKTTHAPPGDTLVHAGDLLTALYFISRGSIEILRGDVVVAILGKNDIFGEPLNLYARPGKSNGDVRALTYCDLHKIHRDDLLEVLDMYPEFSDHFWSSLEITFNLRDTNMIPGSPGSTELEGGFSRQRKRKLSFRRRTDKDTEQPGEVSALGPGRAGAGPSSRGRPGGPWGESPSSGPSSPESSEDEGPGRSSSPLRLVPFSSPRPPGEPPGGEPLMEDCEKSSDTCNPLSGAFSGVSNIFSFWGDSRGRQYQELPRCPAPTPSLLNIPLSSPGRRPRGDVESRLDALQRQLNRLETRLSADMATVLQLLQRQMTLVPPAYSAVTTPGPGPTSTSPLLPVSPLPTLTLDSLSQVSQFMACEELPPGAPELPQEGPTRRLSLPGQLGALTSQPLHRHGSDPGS

`CC(C)[C@H]1OC(=O)[C@H](Cc2ccccc2)N(C)C(=O)[C@@H](C(C)C)OC(=O)[C@H](Cc2ccccc2)N(C)C(=O)[C@@H](C(C)C)OC(=O)[C@H](Cc2ccccc2)N(C)C1=O` [BEA, beauvericin] showed an IC50 of ~2.55 µM.
